Measurements reported in US7713948B2, “Use of 5-substituted nucleosides for reinforcing the apoptotic effect of cytostatic drugs” (Resprotect GmbH, priority 2003, dated 2010).
“Also recorded” adds a separate entry of the source. Values belong to the compound of their own block, whether it stands above or below them.

Tests used:
[1] = DMBA tumour test in SD rats, animal weight (toxic side effects); assay type: in vivo
Experimental: DT-D inactivates ROS and thus protects cells from non-specific ROS and electrophilic attacks. […] DOX treatment alone leads to weight losses because of the toxic side effects. It is certain that only the side effects (possibly the cardiotoxicity characteristic of DOX) are reduced by BVDU but not the toxic effects on the tumour.
(§1) The reduction in toxic side effects of doxorubicin (DOX) was able to be shown in the test with rats (see Table 1). SD rats were treated with dimethybenzanthracene (DMBA). […] During the treatment and one day after each treatment, i.e. in the recovery phase, the animals obtained respectively 15 mg/kg BVDU.

[2] = test system: dimethybenzanthracene (DMBA) induced tumours; assay: DMBA-induced tumours in SD rats, tumour size; assay type: in vivo; conditions: DOX 1 mg/kg
Experimental: as §1

AH13r tumour cells = assay: Hoechst 33258/propidium iodide (Hopi) double colouration for apoptosis; assay type: cell-based; conditions: HOPI double colouration of AH13r tumour cells of the rat
AH13r sarcoma cells = assay: AH13r cell number under increasing doses of cytostatic with or without BVDU, followed by recovery phase; assay type: cell-based, rat; conditions: for cell number: cytostatic + BVDU after three treatment cycles, in comparison to cytostatic alone
Text: This effect was established by means of a screening system according to the invention. This screening method is based on the treatment of tumour cells during a chemotherapy cycle over a period of preferably eight to thirty days with increasing doses of a cytostatic and a constant dose of the overexpression inhibitor. After this combination treatment, the cytostatic is discontinued and the treatment is continued solely with the overexpression inhibitor. This recovery phase (also called recovery phase) lasts preferably between 3 and 10 days. Chemotherapy cycles of this type can be implemented successively up to 6 times.
AH13r cells were subjected to increasing doses of the cytostatic mitomycin C (MMC). […] This inhibitory effect was maintained even after discontinuation of the cytostatic in the next cycle, in the so-called recovery phase. The cells without MMC and BVDU continued to grow without inhibition.

[3] = test system: UBIQUITIN-CONJUGATING ENZYME E2N; UBE2N; assay: Two-dimensional gel electrophoresis, UBE2N; assay type: cell-based; conditions: co-treatment of MMC with BVDU
Text: (§2) Listing of the proteins influenced by the treatment with base analogues and mitomycin C. The results of the implementation of a two-dimensional gel electrophoresis are compiled in the following Table 2.

STAT3 = assay: Western Blot analysis of survival pathways, STAT3; assay type: cell-based; conditions: after DOX treatment, recovery phase (only BVDU given, no cytostatic)
Text: (§3) We tested different “survival pathways” by means of Western Blot analysis. The analyses were implemented according to standard methods, as is described in Sambrook et al., 2001, Molecular Cloning (3rd ed.). Antibody dilutions: P-STAT3 (cell signalling) 1:500, JUN-D (Santa Cruz, Calif.) 1:1,000.
(§4) The densitometrically determined content of oncogene proteins JUN-D and STAT3 was reduced by a quarter or two thirds after DOX treatment in the recovery phase (r=recovery phase). In the “recovery” only BVDU is given, no cytostatic.

[4] = test system: APURINIC ENDONUCLEASE; APE; APE1; APEX; assay: Two-dimensional gel electrophoresis, APEX; assay type: cell-based; conditions: co-treatment of MMC with BVDU
Text: as §2

JUN-D = assay: Western Blot analysis of survival pathways, JUN-D; assay type: cell-based
Text: as §3, §4

Compound: COc1cccc2c1C(=O)c1c(O)c3c(c(O)c1C2=O)C[C@@](O)(C(=O)CO)C[C@@H]3O[C@H]1C[C@H](N)[C@H](O)[C@H](C)O1 [DOX, doxorubicin]
Relative animal weight Day 1 ([1]; SD rats, DMBA-induced tumours, DOX 1 mg/kg, BVDU 15 mg/kg, average of 5-8 rats, Day 1): 0 | Relative animal weight Day 16 ([1]; SD rats, DMBA-induced tumours, DOX 1 mg/kg, BVDU 15 mg/kg, average of 5-8 rats, Day 16): −7% | animal weight change (toxic side effects) ([1]; rat, in vivo): weight losses | Relative tumour size Day 1 ([2]; DMBA-induced tumours, BVDU 15 mg/kg, average of 5-8 rats, Day 1): 1 | Relative tumour size Day 16 ([2]; DMBA-induced tumours, BVDU 15 mg/kg, average of 5-8 rats, Day 16): 1.5 | growth of DMBA-induced tumours [2]: inhibited in their growth | apoptosis (AH13r tumour cells): initiate apoptosis | cell number (AH13r sarcoma cells): Corresponding results

Compound: CN(Cc1cnc2nc(N)nc(N)c2n1)c1ccc(C(=O)N[C@@H](CCC(=O)O)C(=O)O)cc1 [MTX, methotrexate]
cell number (AH13r sarcoma cells): Corresponding results

reduction of overexpression of UBE2N [3]: approximately one third
Compound: O=c1[nH]c(=O)n([C@H]2C[C@H](O)[C@@H](CO)O2)cc1/C=C/Br [BVDU, (E)-5-(2-bromovinyl)-2′-deoxyuridine]
reduction of densitometrically determined content of STAT3 (STAT3): approximately two thirds | reduction of overexpression of APEX [4]: approximately one third | apoptosis (AH13r tumour cells): promotes apoptosis | inhibition of MMC induced JUN-D overexpression (JUN-D; BVDU given in the recovery after MMC): complete inhibition | reduction of densitometrically determined content of JUN-D (JUN-D; after DOX treatment, recovery phase (only BVDU given, no cytostatic)): approximately one quarter; also recorded: a quarter | cell growth in the recovery phase (AH13r sarcoma cells; after discontinuation of the cytostatic, BVDU continued alone): greatly inhibited in their growth | toxic effect on cells (AH13r sarcoma cells; given alone): no toxic effect

Compound: O=C1c2c(O)ccc(O)c2C(=O)c2c(NCCNCCO)ccc(NCCNCCO)c21 [MXA, mitoxantrone]
apoptosis (AH13r tumour cells): initiate apoptosis | cell number (AH13r sarcoma cells): Corresponding results

Compound: CO[C@@]12[C@H](COC(N)=O)C3=C(C(=O)C(C)=C(N)C3=O)N1C[C@@H]1N[C@@H]12 [MMC, mitomycin C]
apoptosis (AH13r tumour cells): initiate apoptosis
